Patent US11339167B2, “Substituted piperidines as kinase inhibitors” (Daewoong Pharmaceutical Co., Ltd., priority 2017, dated 2022)
Where two headings read alike, the source gives them in different places.

Legend:
human JAK3 = human JAK3 (Homo sapiens (Human), UniProt P52333); test: JAK3 kinase inhibitory activity, ADP Glo kinase assay; assay type: biochemical; conditions: recombinant purified human JAK3, ATP 5 uM, Poly(Glu4,Tyr1) peptide, 1 hour 30° C.
Experimental: JAK3 and BTK kinases inhibitory activities were measured for the compounds prepared in the Examples through in vitro analysis on the ADP Glow (Glo) platform.
Specifically, the inhibitory activities against JAK3 and BTK kinase were measured using a JAK3 kinase assay kit (Promega, V9441) and a BTK kinase assay kit (Promega, V9071) which were purchased from Promega. […] After incubation (30° C.) for 1 hour, equivalent volume (25 uL per reaction) of ADP Glo was added and incubated (30° C.) for 40 minutes at room temperature. Then, a kinase detection reagent (50 uL per reaction) was added and incubated (30° C.) for 30 minutes at room temperature. The kinase activity was measured by chemiluminescence according to the instructions of ADP Glow kinase assay kit, and the inhibitory activity of the compounds according to the present disclosure was calculated.

human BTK = human BTK (Homo sapiens (Human), UniProt Q06187); test: BTK kinase inhibitory activity, ADP Glo kinase assay
human BTK, sequence (Q06187 whole entry): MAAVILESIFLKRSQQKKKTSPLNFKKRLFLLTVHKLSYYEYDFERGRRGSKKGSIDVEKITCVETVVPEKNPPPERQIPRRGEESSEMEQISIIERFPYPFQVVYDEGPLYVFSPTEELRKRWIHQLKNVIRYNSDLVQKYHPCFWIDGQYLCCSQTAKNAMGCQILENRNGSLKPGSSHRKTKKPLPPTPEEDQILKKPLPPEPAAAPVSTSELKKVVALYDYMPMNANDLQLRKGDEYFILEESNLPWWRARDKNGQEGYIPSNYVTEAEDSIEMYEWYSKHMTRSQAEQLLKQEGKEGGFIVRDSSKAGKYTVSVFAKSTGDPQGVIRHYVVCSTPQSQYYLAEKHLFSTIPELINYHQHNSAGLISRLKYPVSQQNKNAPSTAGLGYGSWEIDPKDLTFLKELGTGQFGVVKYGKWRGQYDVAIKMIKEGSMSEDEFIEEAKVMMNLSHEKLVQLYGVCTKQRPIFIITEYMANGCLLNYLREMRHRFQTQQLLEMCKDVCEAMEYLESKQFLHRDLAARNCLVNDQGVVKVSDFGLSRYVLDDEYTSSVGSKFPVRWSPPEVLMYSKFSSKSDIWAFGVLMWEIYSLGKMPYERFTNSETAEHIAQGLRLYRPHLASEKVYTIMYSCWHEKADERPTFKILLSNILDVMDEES

[1] = read-out: BTK IC50, recombinant purified human BTK, ATP 10 uM, Poly(Glu4,Tyr1) peptide, 1 hour 30° C.

human JAK3, sequence (P52333 whole entry): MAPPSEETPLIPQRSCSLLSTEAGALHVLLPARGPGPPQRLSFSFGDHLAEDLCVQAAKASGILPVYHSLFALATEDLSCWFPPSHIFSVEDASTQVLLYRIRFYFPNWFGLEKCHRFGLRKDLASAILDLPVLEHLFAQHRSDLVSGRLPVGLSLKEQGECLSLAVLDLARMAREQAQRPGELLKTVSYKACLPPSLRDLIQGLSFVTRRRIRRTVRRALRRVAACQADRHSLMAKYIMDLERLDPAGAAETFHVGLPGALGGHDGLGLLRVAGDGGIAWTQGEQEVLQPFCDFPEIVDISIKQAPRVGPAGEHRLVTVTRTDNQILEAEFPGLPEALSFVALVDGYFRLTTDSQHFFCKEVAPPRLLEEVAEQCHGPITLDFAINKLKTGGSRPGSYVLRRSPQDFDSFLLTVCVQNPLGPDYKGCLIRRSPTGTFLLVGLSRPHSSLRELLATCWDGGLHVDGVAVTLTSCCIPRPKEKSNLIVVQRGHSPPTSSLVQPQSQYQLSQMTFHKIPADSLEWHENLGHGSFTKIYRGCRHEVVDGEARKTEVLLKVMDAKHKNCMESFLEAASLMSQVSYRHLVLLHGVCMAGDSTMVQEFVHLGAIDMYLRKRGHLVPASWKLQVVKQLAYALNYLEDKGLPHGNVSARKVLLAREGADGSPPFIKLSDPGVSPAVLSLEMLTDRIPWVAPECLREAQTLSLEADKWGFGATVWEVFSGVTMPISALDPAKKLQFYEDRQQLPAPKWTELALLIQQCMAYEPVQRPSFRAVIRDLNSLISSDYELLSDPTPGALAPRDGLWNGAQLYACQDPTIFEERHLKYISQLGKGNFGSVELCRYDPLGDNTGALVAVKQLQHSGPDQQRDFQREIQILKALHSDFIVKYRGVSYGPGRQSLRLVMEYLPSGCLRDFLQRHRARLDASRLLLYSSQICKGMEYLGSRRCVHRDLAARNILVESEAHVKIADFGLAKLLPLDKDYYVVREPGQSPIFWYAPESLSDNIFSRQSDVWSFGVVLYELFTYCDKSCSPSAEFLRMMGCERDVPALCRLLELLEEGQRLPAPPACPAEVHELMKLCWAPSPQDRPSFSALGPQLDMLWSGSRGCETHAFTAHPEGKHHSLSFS

| IC50 (human JAK3) [nM] | IC50 (human BTK) [nM] | IC50 (human BTK; [1]) [nM] | BTK IC50 (human BTK; recombinant purified human BTK, ATP 10 uM, Poly(Glu4,Tyr1) peptide, 1 hour 30° C.) | Compound |
| --- | --- | --- | --- | --- |
| 0.4 | 2.8 | – | – | C=CC(=O)N1CC[C@@H](F)[C@H](Oc2nc(Nc3cnn(C4CC4)c3)nc3[nH]cc(Cl)c23)C1 (racemic) [Example 10, 1-(trans-3-((5-chloro-2-((1-cyclopropyl-1H-pyrazol-4-yl)amino)-7H-pyrrolo[2,3-d]pyrimidin-4-yl)oxy)-4-fluoropiperidin-1-yl)prop-2-en-1-one] |
| 0.2 | 1.3 | – | – | C=CC(=O)N1CC[C@@H](F)[C@H](Oc2nc(Nc3cnn(CC)c3)nc3[nH]cc(C#N)c23)C1 (racemic) [Example 12, 4-((trans-1-acryloyl-4-fluoropiperidin-3-yl)oxy)-2-((1-ethyl-1H-pyrazol-4-yl)amino)-7H-pyrrolo[2,3-d]pyrimidine-5-carbonitrile] |
| 0.3 | 1.1 | – | – | C=CC(=O)N1CC[C@@H](F)[C@H](Oc2nc(Nc3cnn(C4CC4)c3)nc3[nH]cc(C#N)c23)C1 (racemic) [Example 13, 4-((trans-1-acryloyl-4-fluoropiperidin-3-yl)oxy)-2-((1-cyclopropyl-1H-pyrazol-4-yl)amino)-7H-pyrrolo[2,3-d]pyrimidine-5-carbonitrile] |
| 0.6 | 5.9 | – | – | C=CC(=O)N1CC[C@H](F)[C@H](Oc2nc(Nc3cnn(CC(F)F)c3)nc3[nH]cc(F)c23)C1 (racemic) [Example 16, 1-(cis-3-((2-((1-(2,2-difluoroethyl)-1H-pyrazol-4-yl)amino)-5-fluoro-7H-pyrrolo[2,3-d]pyrimidin-4-yl)oxy)-4-fluoropiperidin-1-yl)prop-2-en-1-one] |
| 0.7 | 7 | – | – | C=CC(=O)N1CC[C@H](F)[C@H](Oc2nc(Nc3cnn(CC(F)F)c3)nc3[nH]cc(C)c23)C1 (racemic) [Example 18, 1-(cis-3-((2-((1-(2,2-difluoroethyl)-1H-pyrazol-4-yl)amino)-5-methyl-7H-pyrrolo[2,3-d]pyrimidin-4-yl)oxy)-4-fluoropiperidin-1-yl)prop-2-en-1-one] |
| 0.2 | – | 1.3 | – | C=CC(=O)N1CC[C@@H](F)[C@@H](Oc2nc(Nc3cc(C)ns3)nc3[nH]ccc23)C1 [Example 7, 1-((3S,4R)-4-fluoro-3-((2-((3-methylisothiazol-5-yl)amino)-7H-pyrrolo[2,3-d]pyrimidin-4-yl)oxy)piperidin-1-yl)prop-2-en-1-one] |
| 0.4 | – | 3.4 | – | C=CC(=O)N1CC[C@@H](F)[C@@H](Oc2nc(Nc3cnn(CC)c3)nc3[nH]cc(C)c23)C1 [Example 19, 1-((3S,4R)-3-((2-((1-ethyl-1H-pyrazol-4-yl)amino)-5-methyl-7H-pyrrolo[2,3-d]pyrimidin-4-yl)oxy)-4-fluoropiperidin-1-yl)prop-2-en-1-one] |
| 0.4 | – | 4.5 | – | C=CC(=O)N1CC[C@@H](F)[C@@H](Oc2nc(Nc3cnn(CC(F)F)c3)nc3[nH]cc(C)c23)C1 [Example 20, 1-((3S,4R)-3-((2-((1-(2,2-difluoroethyl)-1H-pyrazol-4-yl)amino)-5-methyl-7H-pyrrolo[2,3-d]pyrimidin-4-yl)oxy)-4-fluoropiperidin-1-yl)prop-2-en-1-one] |
| 0.2 | – | 1.5 | – | C=CC(=O)N1CC[C@@H](F)[C@@H](Oc2nc(Nc3cc(C)ns3)nc3[nH]cc(C)c23)C1 [Example 21, 1-((3S,4R)-4-fluoro-3-((5-methyl-2-((3-methylisothiazol-5-yl)amino)-7H-pyrrolo[2,3-d]pyrimidin-4-yl)oxy)piperidin-1-yl)prop-2-en-1-one] |
| 0.4 | – | 3.6 | – | C=CC(=O)N1CC[C@@H](F)[C@@H](Oc2nc(Nc3cnn(C4CC4)c3)nc3[nH]cc(C)c23)C1 [Example 22, 1-((3S,4R)-3-(2-((1-cyclopropyl-1H-pyrazol-4-yl)amino)-5-methyl-7H-pyrrolo[2,3-d]pyrimidin-4-yloxy)-4-fluoropiperidin-1-yl)prop-2-en-1-one] |
| 0.2 | – | 2 | – | C=CC(=O)N1CC[C@@H](F)[C@@H](Oc2nc(Nc3cnn(CC)c3)nc3[nH]cc(Cl)c23)C1 [Example 26, 1-((3S,4R)-3-((5-chloro-2-((1-ethyl-1H-pyrazol-4-yl)amino)-7H-pyrrolo[2,3-d]pyrimidin-4-yl)oxy)-4-fluoropiperidin-1-yl)prop-2-en-1-one] |
| 2 | – | 2.5 | – | C=CC(=O)N1CC[C@@H](F)[C@@H](Oc2nc(Nc3cnn(CC)c3)nc3[nH]cc(F)c23)C1 [Example 27, 1-((3S,4R)-3-((2-((1-ethyl-1H-pyrazol-4-yl)amino)-5-fluoro-7H-pyrrolo[2,3-d]pyrimidin-4-yl)oxy)-4-fluoropiperidin-1-yl)prop-2-en-1-one] |
| 152 | – | > 400 | – | C=CC(=O)N1CC[C@H](F)[C@H](Oc2nc(Nc3cnoc3)nc3[nH]ccc23)C1 [Example 29] |
| 83.6 | – | > 400 | – | C=CC(=O)N1CC[C@H](F)[C@H](Oc2nc(Nc3cc(C)ns3)nc3[nH]ccc23)C1 [Example 32, 1-((3R,4S)-4-fluoro-3-((2-((3-methylisothiazol-5-yl)amino)-7H-pyrrolo[2,3-d]pyrimidin-4-yl)oxy)piperidin-1-yl)prop-2-en-1-one] |

The remaining lines, values behind:

| Compound | IC50 (human JAK3) [nM] | IC50 (human BTK) [nM] | IC50 (human BTK; [1]) [nM] | BTK IC50 (human BTK; recombinant purified human BTK, ATP 10 uM, Poly(Glu4,Tyr1) peptide, 1 hour 30° C.) |
| --- | --- | --- | --- | --- |
| C=CC(=O)N1CC[C@@H](F)[C@H](Oc2nc(Nc3cnn(CC(F)F)c3)nc3[nH]ccc23)C1 (racemic) [Example 2, 1-(trans-3-((2-((1-(2,2-difluoroethyl)-1H-pyrazol-4-yl)amino)-7H-pyrrolo[2,3-d]pyrimidin-4-yl)oxy)-4-fluoropiperidin-1-yl)prop-2-en-1-one] | 0.3 | 2.5 | – | – |
| C=CC(=O)N1CC[C@@H](F)[C@H](Oc2nc(Nc3cnoc3)nc3[nH]ccc23)C1 (racemic) [Example 23, 1-(trans-4-fluoro-3-((2-(isoxazol-4-ylamino)-7H-pyrrolo[2,3-d]pyrimidin-4-yl)oxy)piperidin-1-yl)prop-2-en-1-one] | 0.7 | 11.6 | – | – |
| C=CC(=O)N1CC[C@@H](F)[C@@H](Oc2nc(Nc3cnn(CC(F)F)c3)nc3[nH]ccc23)C1 [Example 6, 1-((3S,4R)-3-((2-((1-(2,2-difluoroethyl)-1H-pyrazol-4-yl)amino)-7H-pyrrolo[2,3-d]pyrimidin-4-yl)oxy)-4-fluoropiperidin-1-yl)prop-2-en-1-one] | 0.2 | – | 1.5 | – |
| C=CC(=O)N1CC[C@@H](F)[C@@H](Oc2nc(Nc3cnn(C4CC4)c3)nc3[nH]ccc23)C1 [Example 8, 1-((3S,4R)-3-((2-((1-cyclopropyl-1H-pyrazol-4-yl)amino)-7H-pyrrolo[2,3-d]pyrimidin-4-yl)oxy)-4-fluoropiperidin-1-yl)prop-2-en-1-one] | 0.2 | – | 1.4 | – |
| C=CC(=O)N1CC[C@@H](F)[C@H](Oc2nc(Nc3cnn(CC)c3)nc3[nH]ccc23)C1 [Example 24, 1-((3R,4R)-3-((2-((1-ethyl-1H-pyrazol-4-yl)amino)-7H-pyrrolo[2,3-d]pyrimidin-4-yl)oxy)-4-fluoropiperidin-1-yl)prop-2-en-1-one] | 5.9 | – | ~400 | – |
| C=CC(=O)N1CC[C@H](F)[C@H](Oc2nc(Nc3cnn(CC)c3)nc3[nH]ccc23)C1 [Example 28, 1-((3R,4S)-3-((2-((1-ethyl-1H-pyrazol-4-yl)amino)-7H-pyrrolo[2,3-d]pyrimidin-4-yl)oxy)-4-fluoropiperidin-1-yl)prop-2-en-1-one] | 15.5 | – | > 400 | – |
| C=CC(=O)N1CC[C@@H](F)[C@@H](Oc2nc(Nc3cnn(CCO)c3)nc3[nH]ccc23)C1 [Example 30, 1-((3S,4R)-4-fluoro-3-((2-((1-(2-hydroxyethyl)-1H-pyrazol-4-yl)amino)-7H-pyrrolo[2,3-d]pyrimidin-4-yl)oxy)piperidin-1-yl)prop-2-en-1-one] | 0.3 | – | 2.4 | – |
| C=CC(=O)N1CC[C@H](F)[C@H](Oc2nc(Nc3ccc(N4CCOCC4)cc3)nc3[nH]ccc23)C1 [Example 31, 1-((3R,4S)-4-fluoro-3-((2-((4-morpholinophenyl)amino)-7H-pyrrolo[2,3-d]pyrimidin-4-yl)oxy)piperidin-1-yl)prop-2-en-1-one] | 206 | – | – | No activity |
| C=CC(=O)N1CC[C@H](F)[C@H](Oc2nc(Nc3cnn(C4CCOCC4)c3)nc3[nH]ccc23)C1 [Example 33, 1-((3R,4S)-4-fluoro-3-((2-((1-(tetrahydro-2H-pyran-4-yl)-1H-pyrazol-4-yl)amino)-7H-pyrrolo[2,3-d]pyrimidin-4-yl)oxy)piperidin-1-yl)prop-2-en-1-one] | 9 | – | > 80 | – |
| C=CC(=O)N1CC[C@H](F)[C@H](Oc2nc(Nc3cnn(C4CC4)c3)nc3[nH]ccc23)C1 [Example 35, 1-((3R,4S)-3-((2-((1-cyclopropyl-1H-pyrazol-4-yl)amino)-7H-pyrrolo[2,3-d]pyrimidin-4-yl)oxy)-4-fluoropiperidin-1-yl)prop-2-en-1-one] | 51.9 | – | – | – |
| C=CC(=O)N1CC[C@@H](F)[C@@H](Oc2nc(Nc3cnn(C4CCNCC4)c3)nc3[nH]ccc23)C1 [Example 36, 1-((3S,4R)-4-fluoro-3-((2-((1-(piperidin-4-yl)-1H-pyrazol-4-yl)amino)-7H-pyrrolo[2,3-d]pyrimidin-4-yl)oxy)piperidin-1-yl)prop-2-en-1-one] | 0.8 | – | – | – |
